Where “and” joins values, the source holds several entries; their conditions need not be identical. Equal values may be shown once.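 In this assay, cells in 96-well plates receive the compound at five concentrations for 48 hours. Endpoints are linearly interpolated between the surrounding concentrations. Abbreviation: GI50, concentration required for 50% inhibition of growth. TGI: concentration producing complete growth inhibition.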 A value given as a limit tells only on which side of the number the result lay.

Results on eight compounds are retold here after PubChem BioAssay (NCI).

Test systems include NCI-H522 lung; UO-31 renal; SR leukemia; SF-295 CNS; SK-OV-3 ovarian; HS 578T breast; NCI/ADR-RES ovarian; NCI-H226 lung; SK-MEL-28 melanoma; SN12C renal.
Common to all, as to assay: growth of human tumour cells (NCI), 48 h

Take `Cc1cccc2c(N=Nc3ccccc3[N+](=O)[O-])c(O)[nH]c12`: the TGI with NCI-H522 lung worked out at 2.85 µM; in the experiment on UO-31 renal it was 22.5 µM; in the experiment on SR leukemia, 38.7 µM; in the experiment on SF-295 CNS, 28.3 µM; in the experiment on SK-OV-3 ovarian, 21.8 µM; in the experiment on HS 578T breast, 16.4 µM. Besides, the TGI in the experiment with NCI/ADR-RES ovarian is over 31.4 µM; in the experiment on NCI-H226 lung, over 39.7 µM; with SK-MEL-28 melanoma it was over 100 µM; with SN12C renal it was 26.8 µM.

In the case of `O=C(Nc1nc(-c2ccccc2)cs1)c1cc(O)c(O)c(O)c1`, the GI50 is 0.337 µM in the experiment with NCI-H522 lung; 0.605 µM in the experiment with UO-31 renal; 1.62 µM in the experiment on SR leukemia; 6.97 µM in the experiment with SF-295 CNS; 12 µM in the experiment with SK-OV-3 ovarian; 3.37 µM in the experiment with HS 578T breast. Further, the GI50 with NCI/ADR-RES ovarian was 3.7 µM; in the experiment on NCI-H226 lung, 8.08 µM; in the experiment on SK-MEL-28 melanoma, 7.18 µM; in the experiment with SN12C renal, 3.19 µM. In addition, the TGI with NCI-H522 lung turned out to be 1.23 µM; in the experiment with UO-31 renal, 19.4 µM; in the experiment on SR leukemia, 19.9 µM; with SF-295 CNS it was 55.1 µM; in the experiment with SK-OV-3 ovarian, 41.9 µM; with HS 578T breast, 83.8 µM. Moreover, the TGI in the experiment on NCI/ADR-RES ovarian was over 100 µM; with NCI-H226 lung, 54.8 µM; in the experiment with SK-MEL-28 melanoma it was 60.8 µM; in the experiment with SN12C renal, 29.9 µM.

Regarding `O=C1c2ccccc2C(=O)c2sc(Nc3ccc(Cl)cc3)nc21`, the TGI stood at 3.28 µM with NCI-H522 lung; 6.35 µM in the experiment on UO-31 renal; 5.84 µM in the experiment on SR leukemia; 15.8 µM in the experiment on SF-295 CNS; 30.4 µM with SK-OV-3 ovarian; 14.1 µM in the experiment with HS 578T breast. Further, the TGI in the experiment with NCI/ADR-RES ovarian amounted to 5.52 µM; with NCI-H226 lung, 15.3 µM; with SK-MEL-28 melanoma it was 3.36 µM; in the experiment on SN12C renal it was 3.56 µM. Also, the GI50 with HS 578T breast was 2.92 µM; in the experiment with NCI/ADR-RES ovarian, 2.1 µM.

With `COc1ccc2c(c1)C(=O)c1c-2n(CCCN=[N+]=[N-])c(=O)c2cc(N)ccc12`, the GI50 is over 100 µM in the experiment on NCI-H522 lung; over 100 µM in the experiment on UO-31 renal; 89.6 µM with SR leukemia; over 100 µM with SF-295 CNS; over 100 µM in the experiment with SK-OV-3 ovarian; over 100 µM in the experiment with HS 578T breast. Further, the GI50 in the experiment on NCI/ADR-RES ovarian, in the experiment with NCI-H226 lung and in the experiment on SN12C renal was over 100 µM throughout. The TGI with NCI-H522 lung, with UO-31 renal, in the experiment on SR leukemia, with SF-295 CNS, in the experiment on SK-OV-3 ovarian and in the experiment with HS 578T breast was over 100 µM in each case. In addition, the TGI in the experiment with NCI/ADR-RES ovarian, in the experiment with NCI-H226 lung, with SK-MEL-28 melanoma and in the experiment with SN12C renal was over 100 µM throughout.

Consider `CC1=C/C(O)CC(=O)Cc2nc(co2)C(=O)N2CCC=C2C(=O)OC(C(C)C)C(C)/C=C\C(=O)NC/C=C\1` (centres undefined), for which the GI50 with NCI-H522 lung was 15.2 µM; in the experiment with UO-31 renal it was 25.7 µM; in the experiment on SR leukemia, over 100 µM; in the experiment with SF-295 CNS it was 22.3 µM; in the experiment on HS 578T breast it was over 75.8 µM; in the experiment on NCI/ADR-RES ovarian it was over 100 µM. Besides, the GI50 in the experiment on NCI-H226 lung is over 46.3 µM; in the experiment with SN12C renal, 25.9 µM. Also, the TGI was > 65.6 µM and 11.8 µM with NCI-H522 lung; 91.7 µM with UO-31 renal; > 100 µM and 44.6 µM with SR leukemia; over 100 µM with SF-295 CNS; over 100 µM in the experiment on SK-OV-3 ovarian; > 100 µM and 59.4 µM in the experiment with HS 578T breast. For the same compound, the TGI in the experiment on NCI/ADR-RES ovarian was over 100 µM; in the experiment with NCI-H226 lung, over 100 µM; in the experiment with SK-MEL-28 melanoma it was 44.6 µM and 46.3 µM; in the experiment with SN12C renal it was > 100 µM and 29.2 µM.

On to `CN(C)CCCN1c2ccc(O)cc2Sc2ccc(Cl)cc21`, for which the TGI in the experiment on NCI-H522 lung turned out to be 25.3 µM; in the experiment on UO-31 renal, 21.7 µM; in the experiment with SR leukemia, 15.8 µM; in the experiment on SF-295 CNS, 29 µM; with SK-OV-3 ovarian, 32.1 µM; with HS 578T breast, 23.1 µM. Besides, the TGI with NCI/ADR-RES ovarian is 30.1 µM; in the experiment with NCI-H226 lung, 24.7 µM; with SK-MEL-28 melanoma, 24.7 µM; with SN12C renal it was 23.1 µM.

For `Cc1ccc(NC(=O)N2CCCCC2)cc1[N+](=O)[O-]`, the GI50 is 87.1 µM with NCI-H522 lung; over 100 µM with UO-31 renal; over 100 µM in the experiment on SR leukemia; over 100 µM in the experiment on SF-295 CNS; over 100 µM in the experiment on SK-OV-3 ovarian; over 100 µM in the experiment on HS 578T breast. The GI50 with NCI/ADR-RES ovarian, in the experiment on NCI-H226 lung, in the experiment with SK-MEL-28 melanoma and in the experiment on SN12C renal was over 100 µM in each case. Moreover, the TGI in the experiment on NCI-H522 lung, with UO-31 renal, in the experiment with SR leukemia, in the experiment with SF-295 CNS, in the experiment with SK-OV-3 ovarian and in the experiment on HS 578T breast was over 100 µM each time. Further, the TGI with NCI/ADR-RES ovarian, in the experiment on NCI-H226 lung, in the experiment with SK-MEL-28 melanoma and in the experiment on SN12C renal was over 100 µM throughout.

Turning to `O=C(O)c1nnsc1-c1csnn1`, the TGI in the experiment with NCI-H522 lung, in the experiment on UO-31 renal, with SR leukemia, in the experiment on SF-295 CNS, in the experiment with SK-OV-3 ovarian and in the experiment with HS 578T breast was over 100 µM throughout. Besides, the TGI in the experiment on NCI/ADR-RES ovarian, with NCI-H226 lung, with SK-MEL-28 melanoma and in the experiment with SN12C renal was over 100 µM in each case.
